Assay [1] has as its system mTOR1/4E-BP1/AKT1 axis. Briefly: XL388-induced mTOR inhibition during hMSCs-osteoblast differentiation (qPCR, western blot). Type of assay: cell-based, human. As to the method: hMSCs were differentiated into osteoblasts with/without […] XL388 or 0.1 μg ml^−1 HKUOT-S2 treatments for 7 days with medium replenishments every 3 days. The collected cell pellets were processed for qPCR and western blot analyses to establish the mechanism by which HKUOT-S2 promotes osteogenesis and new bone formation. The lists of all the genes and corresponding primer pairs as well as primary and secondary antibodies used for qPCR and western blot analyses are listed in Tables 6, 7 and 8.
In general terms: Real-time PCR tracks product formation cycle by cycle.

Assay [2] deals with ovariectomized (OVX) mice. Kind of assay: OVX-induced osteoporosis, femur μCT. Type of assay: in vivo, mouse. As to the method:
A total of 32 female C57BL/6J mice at the age of 8-12 weeks old and weighing between 22-25 g were used in this study. All mice underwent dorsoventral surgical operation under anesthesia. The sham control underwent surgery without ovary removal. The ovaries were completely removed from the anterior uterine horns in the OVX group. There were four groups, namely sham control (n=8), OVX control (n=8), OVX+30 μg kg^−1 estrogen (E2, n=8), and OVX+2.18 mg kg^−1 HKUOT-S2 (n=8) treatment groups. The sham and OVX control mice were given subcutaneous of 200 μl of 1XBP. The OVX+E2 and OVX+HKUOT-S2 groups were given 200 μl E2 and HKUOT-S2 via subcutaneous and IP injections respectively. All treatments started 4 hrs after the surgery and thrice per week for 4 weeks post-surgery. Micro CT (μCT) scans were taken on day zero and biweekly post-surgery. At the experimental endpoint, all the mice in the groups were sacrificed under overdose of anesthesia, the bone tissues harvested and processed for bone histomorphometry and immunohistochemical analyses.

The test system of assay [3] is hMSCs. Briefly: hMSCs to osteoblast differentiation. It counts as cell-based, human. As to the method: The hMSCs and MC3T3-1E cell lines were seeded at 2.5×10^4 cells/well and 2.5×10^3 cells/well of 6-well plate respectively, containing 2 ml of normal cell culture media. The cell culture media were then replaced with osteogenic media containing 100 nM Dex, 10 mM β-Gly and 0.28 mM Asc with or without the HKUOT-S2 protein. The cells were maintained in the osteogenic media for 14 days with media replacement every 3 days. The nondifferentiated cells maintained in the normal cell culture media were used as controls. The cell pellets were then collected and processed for osteogenic gene expression analysis by qPCR at the experimental endpoints.
High Quality Total RNAs, with OD260/OD280 Between 1.98-2.00, were extracted from the in vitro experimented cell lines and the tissues harvested from the in vivo experiments using RNAiso plus reagent (Cat #9109) according to the manufacturer's protocol. The quality and quantity of the extracted RNAs were determined using the NanoDrop One (C) UV-VIS micro-volume spectrophotometer (Thermo Scientific). Equal amount of RNAs across the experimental groups were reverse transcribed into complementary DNA (cDNA) using the PrimeScript™ RT reagent Kit (cat #RR037A, Takara) and Peltier Thermal Cycler (Cat #PTC-100, MJ Research) according to the manufacturers' instructions. Specific primer pairs, equal amount of cDNA for the various experimental groups and the PowerUp™ SYBR™ Green Master Mix (Cat #A25742, Thermo Scientific) were used to prepare the qPCR reaction mix. 10 μl of the qPCR reaction mix of the control and HKUOT-S2 treatment groups, loaded into 96-well plate (0.2 ml) were used evaluate the HKUOT-S2-induced gene expressions in the cell lines from the in vitro and the harvested tissues from the in vivo experiments using the QuantStudio 5 real-time PCR system (Thermo Scientific). The HKUOT-S2-induced differentially gene expression fold changes were calculated by 2^−ΔΔCt method after housekeeping gene normalization.

The mark [4] stands for this setting: 250 nM XL388 alone, western blot.
[5] abbreviates: femur of OVX mice, 2.18 mg/Kg HKUOT-S2, 0.5 mg/Kg SEQ ID NO: 83, n=3.
[6] abbreviates: 0.1 μg/ml HKUOT-S2, 0.01 μg/ml SEQ ID NO: 83.

In the case of `Cc1c(C(=O)N2CCOc3ccc(-c4ccc(N)nc4)cc3C2)ccc(S(C)(=O)=O)c1F` [XL388], in assay [1] (125 nM XL388 alone, qPCR), the 4E-BP1 expression result was “significantly suppressed”, the AKT1 expression entry is recorded as “significantly suppressed”, the MTOR1 expression result was “significantly suppressed” and the RUNX2 expression entry was “significantly suppressed”. Further, the S6K1 expression result in assay [1] (125 nM XL388 alone, qPCR) is “significantly suppressed”. For the same compound, in assay [1] (setting [4]), the “phosphorylation of 4E-BP1” value is reported as “prevented” and the “phosphorylation of MTOR1” value was “prevented”. In addition, the ALP expression result in assay [1] (XL388-induced mTOR inhibition) was “no effects”.
Consider “TKSSLPGQTK (HKUOT-S2 peptide) [SEQ ID NO: 83]”, for which, in assay [2] (0.5 mg/Kg SEQ ID NO: 83, OVX mice), the “osteoporosis suppression effects compared with the 2.18 mg/Kg HKUOT-S2 treatment group” value was “stronger”. Also, in assay [2] (setting [5]), the “bone surface area to bone volume ratio (BS/BV)” value was “decreased”, the “bone surface area to tissue volume (BS/TV) ratio” value is “significantly increasing”, the “bone volume (BV/TV)” value is “significantly increasing” and the “trabecular number (Tb. N)” value was “significantly increasing”. Besides, in assay [2] (setting [5]), the “trabecular separation (Tb. Sp)” value was “decreased” and the “trabecular thickness (Tb.th)” value was “significantly increasing”. Moreover, in assay [3], the “osteogenic effects compared to the HKUOT-S2 treatment” value is “robust”. Besides, in assay [3] (setting [6]), the ALP activities result is “significantly increased”, the “ALP mRNA expression” value is on record as “increasing”, the “oestrogen receptor α (ERα) mRNA expression” value is recorded as “increasing” and the osteoblast biomineralization entry is “significantly increased”. Besides, the COL-1A expression entry in assay [3] (0.01μ gml^−1) is “increasing”.

The values are drawn from patent US20260049109A1, “NOVEL IMMUNOMODULATORY, NEUROMODULATORY, OSTEOGENIC, AND ANTI-OSTEOPOROTIC HKUOT-S2 PROTEIN THAT ENHANCES BONE FRACTURE REPAIRS AND SUPPRESSES OSTEOPOROSIS DEVELOPMENT” (The University of Hong Kong, priority 2022, published 2026).
